Results published in patent publication US20190269801A1 (CEDARS-SINAI MEDICAL CENTER, priority 2016, published 2019).
Read-outs that look alike come from different tables or passages of the source.

What was measured:
[1] = tested on: Namalwa cell line-derived xenografts; test: NIR-dye-cisplatin uptake in Namalwa xenografts vs organs (NIRF microscopy, IVIS); conditions: in vivo
Text: FIG. 28 depicts in accordance with various embodiments of the invention, B-cell lymphoma cell line (Namalwa) subcutaneus tumor xenografts in NCR-NU mice were extracted after the mice were sacrificed. NIR-dye-cisplatin uptake in tumors were imaged by a near-infrared fluorescence (NIRF) microscopy and IVIS Lumina XR Imaging System.

Namalwa tumors = test: Namalwa xenograft growth in mice; format: in vivo, mouse; conditions: equimolar doses i.p. 3 times a week
[2] = tested on: B-cell lymphoma cell lines Namalwa, Raji, CA46, Ramos, Daudi; test: Growth and viability of B-cell Burkitt's lymphoma cell lines, MTT, 72 h; format: cell-based, human; conditions: B-cell lymphoma cell lines, 72 h
Method: 5,000 cells/well renal cancer cells and 10,000 cells/well lymphoma cells are seeded in 96 well plates in 100 microliter medium/per well for 24 h. […] Renal cancer cells are fixed with 3.7% paraformaldehyde for 15 minutes and are stained with Crystal violet solution (0.5% in 25% methanol) for 30 minutes. After rinsing with water cell layers are dried and decolorized with Sorenson citrate with shaking for 20 minutes. […] Lymphoma cell growth was evaluated using MTT and cells are incubated for 4 hours.
(§1) Induction of apoptosis was assessed using a caspase 3/7 luminescent assay. Cleavage of apoptosis substrates and inhibition of c-myc was determined by western blotting, with images quantified by ImageJ after normalization with GAPDH. […] Formalin-fixed tumor and kidney sections were stained with hematoxylin and esosin and kidney sections scored using a semiquantitative scale designed to assess AKI-associated tubular injury (tubular epithelial cell loss, necrosis, tubular epithelial simplification, intratubular debris, and casts).

[3] = tested on: Namalwa and Raji cell lines; test: Apoptosis by caspase 3/7 luminescent assay and western blot in BL cell lines; format: cell-based, human; conditions: 24 hours of drug exposure; 8, 16, 32 μM
Method: Namalwa cells are cultured in RPMI 1640, 10% fetal bovine serum, 1% PenStrep, and placed in a humidified atmosphere containing 5% CO2 at 37° C. 10,000-15,000 cells/well are seeded in 96 white wall well plates in 100 microliter medium/per well for 24 h. […] 100 microliters of Caspase-Glo 3/7 assay is added and luminescence is then read. Caki-1 cells are cultured in RPMI 1640, 10% fetal bovine serum, 1% PenStrep, and placed in a humidified atmosphere containing 5% CO2 at 37° C. 5,000 cells/well are seeded in 96 white wall well plates in 100 microliter medium/per well for 24 h. […] 100 microliters of Caspase-Glo 3/7 assay is added and luminescence is then read.

mouse kidneys [4] = test: Kidney histopathology, AKI-associated tubular injury score, Namalwa-bearing mice; conditions: i.p. 3 times a week for 4 weeks
Method: FIG. 27 depicts in accordance with various embodiments of the invention, formalin-fixed kidney sections are stained with hematoxylin and esosin and scored using a semiquantitative scale designed to assess AKI-associated tubular injury (tubular epithelial cell loss, necrosis, tubular epithelial simplification, intratubular debris, and casts).
as §1

ACHN tumors = conditions: equimolar doses i.p. 3 times a week
Method: (§2) Tumor size is measured using a formula (length×width^2)/2.
(§3) Apoptosis was assessed by caspase 3/7 luminescent assay. Cleavage of apoptosis substrates was determined by western blotting. […] Formalin-fixed tumor, liver and kidney sections were stained with H&E and kidney sections were scored semiquantitativey.

Renca tumors = conditions: equimolar doses i.p. 3 times a week
Method: as §2, §3

Caki-1 cells = test: Apoptosis by caspase 3/7 luminescent assay and western blot in Caki-1 cells; format: cell-based, human; conditions: 24 hours of drug exposure, 8, 16, and 32 μM
Method: 10,000-15,000 cells/well are seeded in 96 white wall well plates in 100 microliter medium/per well for 24 h. […] 100 microliters of Caspase-Glo 3/7 assay is added and luminescence is then read. […] 5,000 cells/well are seeded in 96 white wall well plates in 100 microliter medium/per well for 24 h. […] 100 microliters of Caspase-Glo 3/7 assay is added and luminescence is then read.
as §3

mouse kidneys [5] = test: Kidney histopathology in RCC tumor-bearing mice (H&E, semiquantitative score); conditions: i.p. 3 times a week for 4 weeks
Method: as §3

[6] = tested on: ovarian tumor cells OV90 and OVCA433; conditions: in vitro
[7] = tested on: ex vivo expanded CTCs from PC patients and LNCaP and C4-2B cells from mouse bone marrow, 3-D spheroids; test: Viability/apoptosis of PC CTCs and bone marrow-derived LNCaP and C4-2B grown as 3-D spheroids; format: cell-based, human
Method: Immortalized PC cell lines (PC3, LNCaP, C4-2, C4-2B, 22Rv1) and 3-D spheroid growth of mouse bone marrow-derived LNCaP and C4-2B and ex vivo expanded CTCs from patients were used. […] Induction of apoptosis was assessed by caspase 3/7 luminescent assay. Growth inhibitory effects were compared between 2-D and 3-D. Senescent luciferase-tagged LNCaP and C4-2B cells from mouse bone marrow regained growth potential when propagated in vitro as 3D spheroids. RPMI medium supplemented with 10% FBS and 1% penicillin/streptomycin was used to grow CTCs in vitro.

`CC1(C)C(/C=C/C2=C(Cl)C(=C/C=C3/N(CCCCCC(=O)[O][Pt]([NH2])([NH2])([OH])([Cl])[Cl])c4ccccc4C3(C)C)/CCC2)=[N+](CCCCS(=O)(=O)[O-])c2ccccc21` [NIR dye-cisplatin, DZ-1-cisplatin] was tested, and the “accumulation in cell line-derived xenografts relative to mouse kidneys and lungs” value [1] was 7-15 times, the tumor growth inhibition (Namalwa tumors) was “more effective than cisplatin” and the “antitumor effect (in words)” value [2] was “even more potent antitumor effect”. For the same molecule, the “induction of apoptosis (caspase 3/7; caspase 9, caspase 3 and PARP)” value [3] was “induces apoptosis”, the “kidney toxicity (histopathology)” value (mouse kidneys [4]) was “preserves the integrity and normal morphology of mouse kidneys” and the tumor growth inhibition (ACHN tumors) was “tumor growth inhibition and apoptotic nuclear lobulation/fragmentation”. The tumor growth inhibition (ACHN tumors; listed as dye-cisplatin) was “more effective than cisplatin”, the tumor growth inhibition (Renca tumors) was “tumor growth inhibition and apoptotic nuclear lobulation/fragmentation” and the tumor growth inhibition (Renca tumors; listed as dye-cisplatin) was “more effective than cisplatin”. For the same molecule, the “induction of apoptosis (caspase 3/7, apoptosis related markers)” value (Caki-1 cells) was “induced apoptosis”, the “induction of apoptosis (caspase 3/7, apoptosis related markers)” value (Caki-1 cells; listed as dye-cisplatin) was “induces apoptosis” and the “kidney toxicity (histopathology)” value (mouse kidneys [5]) was “preserved the integrity and normal morphology of mouse kidneys”. For the same molecule, the “sensitivity of cell growth relative to unconjugated drug” value [6] was “more sensitive” and the “sensitivity of cells grown as 3-D spheroids” value [7] was “extremely sensitive”.
